Here are results for 7 molecules from PMC8868518, “Exploring Titanium(IV) Complexes as Potential Antimicrobial Compounds” (Antibiotics, 2022).

The subject of assay [1] is MRC-5 cells. Put plainly: MRC-5 cell viability, dose-response treatment, MTT assay. It counts as cell-based, human. To be noted: MRC-5 cells, MTT, 72 h, pH 7.4, n = 6, this work. (In general: Tetrazolium assays rely on reduction of a dye to a coloured formazan, in cell work by metabolically active cells.)
In assay [2] the test system is S. aureus MRSA (ATCC 43300). As to the kind of experiment: CO-ADD antibacterial assay, growth inhibition (OD600). The assay is classed as cell-based, Staphylococcus aureus. To be noted: for MIC / Dmax: Staphylococcus aureus; for MIC / MIC S. aureus (MRSA): predicted or measured MIC, lowest concentration with ≥75% growth inhibition, 0.25-32 μg/mL, 18 h; for Dmax / Dmax S. aureus (MRSA), maximum % inhibition: up to 32 μg/mL; for Dmax: read-out: Dmax S. aureus (MRSA), maximum % inhibition.

Setting [3] is: Homo sapiens, MRC5, read-out: IC50 ± SD.
The mark [4] stands for this setting: Homo sapiens, MRC5, read-out: IC50 ± SD (µg/mL).

Where a name gives a salt, the structure may show the parent alone. Read-outs that look alike come from different tables or passages of the source.

Consider `O=C(O)CC(O)(CC(=O)O)C(=O)O` [Compound 1, Trisodium citrate, reference compound], for which the IC50 in assay [1] (setting [3]) was more than 100 µM. Moreover, the IC50 in assay [1] (setting [4]) was more than 29.4 µg/mL. Further, in assay [2], the MIC (usually the least concentration at which growth counts as inhibited) is more than 32 µg/mL and the Dmax is 10.6%.
In the case of `O=C(O)c1ccccc1O` [Compound 6, salicylic acid, reference compound], the IC50 in assay [1] (setting [3]) is more than 100 µM. Also, the IC50 in assay [1] (setting [4]) was more than 13.8 µg/mL. Further, in assay [2], the MIC was more than 32 µg/mL and the Dmax worked out at 13.9%.
For the molecule `[K+].[K+].c1ccc2cc3c(cc2c1)[O][Ti-2]12([O]3)([O]c3cc4ccccc4cc3[O]1)[O]c1cc3ccccc3cc1[O]2` [Compound 8, K2[Ti(Naphthalene-2,3-diolate)3]], the “IC50 ± SD (µg/mL)” value in assay [1] is on record as >>65.5 µg/mL. For the same molecule, the IC50 in assay [1] (read-out: IC50 ± SD) is more than 100 µM. In assay [2], the “MIC S. aureus (MRSA)” value was more than 32 µg/mL and the “Dmax S. aureus (MRSA), maximum % inhibition” value turned out to be 52.5%.
On to [Cu(Deferasirox)(H2O)]2 [Compound 15], for which the “IC50 ± SD” value in assay [1] was found to be 7.70 ± 1.47 µg/mL. The IC50 in assay [1] (read-out: IC50 ± SD) was 8.4 ± 1.62 µM. In addition, in assay [2], the “MIC S. aureus (MRSA)” value was more than 32 µg/mL and the “Dmax S. aureus (MRSA), maximum % inhibition” value amounted to 26.9%.
`O=C(O)c1ccc(-n2nc3nc2-c2ccccc2[O][Ti]2([O]c4ccccc4-3)[O]c3ccccc3-c3nc(n(-c4ccc(C(=O)O)cc4)n3)-c3ccccc3[O]2)cc1` [Compound 10, titanium(IV) bis(deferasirox)]: in assay [2] (converted from 16 μg/mL), the “MIC against MRSA in units of molarity” value was determined as 20.2 µM. Besides, in assay [2], the “MIC S. aureus (MRSA)” value is 16 µg/mL. In addition, the entries for the “Dmax S. aureus (MRSA), maximum % inhibition” value in assay [2] and in assay [2] (listed as Ti(Deferasirox)2) were 98.2% and approximately 100%, respectively.
In the case of `Oc1cc2ccccc2cc1O` [Compound 2, 2,3-dihydroxynaphthalene, reference compound], the IC50 in assay [1] (setting [3]) was more than 100 µM; in assay [1] (setting [4]) it was more than 16 µg/mL. The MIC in assay [2] was more than 32 µg/mL. In assay [2], the Dmax is 12.6%.
As to `O=C([O-])C(=O)O.O=C([O-])C(=O)O.[K+].[K+].[O]=[Ti]` [Compound 14, Potassium dioxalatoxotitanate(IV) dihydrate], in assay [1], the “IC50 ± SD (µg/mL)” value was >>35.4 µg/mL. Moreover, the IC50 in assay [1] (read-out: IC50 ± SD) is more than 100 µM. For the same molecule, in assay [2], the “MIC S. aureus (MRSA)” value was more than 32 µg/mL and the “Dmax S. aureus (MRSA), maximum % inhibition” value is recorded as 40.5%.
